Experimental data: patent US10039742B2, “Sn-2-monoacylglycerols and lipid malabsorption” (Nestec S.A., priority 2010, dated 2018)

Assay: Lipid maldigestion/malabsorption animal model obtained with Orlistat: EPA incorporation in red blood cells, plasma lipids and tissues
Type: in vivo, rats
Conditions: comparison between the groups receiving fish oil with or without Orlistat; day 7
Text: Treatments: Control rats fed fish oil with or without Orlistat and rats fed NAG derivatives described in FIGS. 1A and 1B. Values are means±SEM (n=6).
The inventors tested their concept in a lipid malabsorption animal model. The lipid maldigestion/malabsorption conditions were obtained using Orlistat®, a well known pancreatic and gastric lipases inhibitor. Animals were fed with long-chain polyunsaturated fatty acid (LC-PUFA) supplements containing mainly eicosapentaenoic (EPA) acid. Fish oil was used as a source of triacylglycerols and different EPA glycerides, for example those of FIGS. 1A and 1B, were evaluated. At different time intervals the fatty acid profile of red blood cells and plasma lipids was assessed. At the end of the experiment, fatty acid profiles of different tissues were determined. […]
The concept was tested in a lipid maldigestion or malabsorption animal model. […] Fish oil was used as a source of triacylglycerols and the different EPA glycerides provided in FIGS. 1A and 1B were evaluated. […] At the end of the experiment, fatty acid profiles of different tissues were determined.
The main objective was to follow the level of EPA in red blood cell and plasma lipids. The main comparison evaluated was the difference in EPA level between groups receiving EPA derivatives (FIGS. 1A and 1B) in combination with Orlistat and the […] control group (fish oil+Orlistat).

CCCCCCCCCCC[C@@H](C[C@@H]1OC(=O)[C@H]1CCCCCC)OC(=O)[C@H](CC(C)C)NC=O [Orlistat]
EPA incorporation in red blood cells: decrease EPA incorporation in red blood cells
